Measurements from PubChem BioAssay (NCI).
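96-well plates; 48 h exposure; 5 concentrations. Endpoints by linear interpolation between flanking doses. Not reached: highest tested concentration assigned. TGI denotes the concentration required for complete inhibition of growth.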

Assays:
Assay in all cases: NCI tumour cell line growth inhibition, 48 h
[1] = system: UO-31 renal
[2] = system: TK-10 renal
[3] = system: UACC-62 melanoma
[4] = system: K-562 leukemia
[5] = system: SN12C renal
[6] = system: SF-539 CNS
[7] = system: DMS 273 small cell lung
[8] = system: LXFL 529 NSCLC
[9] = system: HL-60(TB) leukemia
[10] = system: A549 NSCLC
[11] = system: M19-MEL melanoma
[12] = system: SW-620 colon
[13] = system: OVCAR-5 ovarian
[14] = system: SR leukemia
[15] = system: RPMI-8226 leukemia
[16] = system: DLD-1 colon
[17] = system: EKVX NSCLC
[18] = system: SF-268 CNS
[19] = system: NCI-H23 lung
[20] = system: M14 melanoma
[21] = system: OVCAR-8 ovarian
[22] = system: UACC-257 melanoma
[23] = system: SK-MEL-5 melanoma
[24] = system: ACHN renal
[25] = system: 786-0 renal
[26] = system: U251 CNS
[27] = system: DMS 114 small cell lung
[28] = system: NCI-H460 lung
[29] = system: OVCAR-4 ovarian
[30] = system: OVCAR-3 ovarian
[31] = system: MALME-3M melanoma
[32] = system: KM12 colon
[33] = system: SK-MEL-2 melanoma
[34] = system: CCRF-CEM leukemia
[35] = system: LOX IMVI melanoma
[36] = system: HCT-15 colon
[37] = system: HOP-92 NSCLC
[38] = system: NCI-H226 lung
[39] = system: SK-MEL-28 melanoma
[40] = system: A498 renal
[41] = system: COLO 205 colon
[42] = system: HOP-62 NSCLC
[43] = system: SNB-75 CNS
[44] = system: NCI-H522 lung
[45] = system: MOLT-4 leukemia
[46] = system: KM20L2 colon
[47] = system: HCC-2998 colon
[48] = system: HCT-116 colon
[49] = system: SNB-19 CNS
[50] = system: CAKI-1 renal
[51] = system: HT29 colon
[52] = system: IGROV1 ovarian
[53] = system: SK-OV-3 ovarian
[54] = system: RXF 393 renal
[55] = system: HOP-18 NSCLC
[56] = system: SF-295 CNS

**Q.** Which TGI [1] does the source give for `O=C(c1ccc(O)cc1)C1c2c3c(cc(O)c2C(c2ccc(O)cc2)C1c1cc(O)cc(O)c1)OC(c1ccc(O)cc1)C3c1cc2c(cc1O)OC(c1ccc(O)cc1)C2c1cc(O)cc(O)c1` (stereo unspecified) here?
**A.** > 12.5 µM

**Q.** What about the TGI [2] of the same compound?
**A.** > 12.5 µM

**Q.** And the TGI [3]?
**A.** > 12.5 µM

**Q.** What about the TGI [4] of the same compound?
**A.** > 12.5 µM

**Q.** What about the TGI [5] of the same compound?
**A.** > 12.5 µM

**Q.** What about the TGI [6] of the same compound?
**A.** > 12.5 µM

**Q.** And the TGI [7]?
**A.** > 12.5 µM

**Q.** And the TGI [8]?
**A.** > 12.5 µM

**Q.** What about the TGI [9] of the same compound?
**A.** > 12.5 µM

**Q.** And the TGI [10]?
**A.** > 12.5 µM

**Q.** And the TGI [11]?
**A.** > 12.5 µM

**Q.** And the TGI [12]?
**A.** > 12.5 µM

**Q.** And the TGI [13]?
**A.** > 12.5 µM

**Q.** What about the TGI [14] of the same compound?
**A.** > 12.5 µM

**Q.** And the TGI [15]?
**A.** > 12.5 µM

**Q.** And the TGI [16]?
**A.** > 12.5 µM

**Q.** What about the TGI [17] of the same compound?
**A.** > 12.5 µM

**Q.** And the TGI [18]?
**A.** > 12.5 µM

**Q.** And the TGI [19]?
**A.** > 12.5 µM

**Q.** And the TGI [20]?
**A.** > 12.5 µM

**Q.** And the TGI [21]?
**A.** > 12.5 µM

**Q.** And the TGI [22]?
**A.** > 12.5 µM

**Q.** What about the TGI [23] of the same compound?
**A.** > 12.5 µM

**Q.** What about the TGI [24] of the same compound?
**A.** > 12.5 µM

**Q.** And the TGI [25]?
**A.** > 12.5 µM

**Q.** What about the TGI [26] of the same compound?
**A.** > 12.5 µM

**Q.** What about the TGI [27] of the same compound?
**A.** > 12.5 µM

**Q.** And the TGI [28]?
**A.** > 12.5 µM

**Q.** And the TGI [29]?
**A.** > 12.5 µM

**Q.** And the TGI [30]?
**A.** > 12.5 µM

**Q.** What about the TGI [31] of the same compound?
**A.** > 12.5 µM

**Q.** And the TGI [32]?
**A.** > 12.5 µM

**Q.** What about the TGI [33] of the same compound?
**A.** > 12.5 µM

**Q.** And the TGI [34]?
**A.** > 12.5 µM

**Q.** What about the TGI [35] of the same compound?
**A.** > 12.5 µM

**Q.** And the TGI [36]?
**A.** > 12.5 µM

**Q.** And the TGI [37]?
**A.** > 12.5 µM

**Q.** And the TGI [38]?
**A.** > 12.5 µM

**Q.** What about the TGI [39] of the same compound?
**A.** > 12.5 µM

**Q.** What about the TGI [40] of the same compound?
**A.** > 12.5 µM

**Q.** And the TGI [41]?
**A.** > 12.5 µM

**Q.** What about the TGI [42] of the same compound?
**A.** > 12.5 µM

**Q.** And the TGI [43]?
**A.** > 12.5 µM

**Q.** What about the TGI [44] of the same compound?
**A.** > 12.5 µM

**Q.** And the TGI [45]?
**A.** > 12.5 µM

**Q.** And the TGI [46]?
**A.** > 12.5 µM

**Q.** What about the TGI [47] of the same compound?
**A.** > 12.5 µM

**Q.** And the TGI [48]?
**A.** > 12.5 µM

**Q.** What about the TGI [49] of the same compound?
**A.** > 12.5 µM

**Q.** And the TGI [50]?
**A.** > 12.5 µM

**Q.** Which results are given for `COc1ccc(C2S/C(=C\c3ccccc3O)C(=O)N2NC(=O)Cc2ccccc2)cc1` (stereo unspecified)?
**A.** TGI [1]: > 100 µM; TGI [2]: > 100 µM; TGI [3]: > 100 µM; TGI [4]: > 100 µM; TGI [5]: > 100 µM; TGI [6]: > 100 µM; TGI [7]: > 100 µM; TGI [8]: > 100 µM; TGI [9]: > 100 µM; TGI [51]: > 100 µM; TGI [52]: > 100 µM; TGI [53]: > 100 µM; TGI [10]: > 100 µM; TGI [11]: > 100 µM; TGI [12]: > 100 µM; TGI [54]: > 100 µM; TGI [13]: > 100 µM; TGI [14]: > 100 µM; TGI [55]: > 100 µM; TGI [15]: > 100 µM; TGI [16]: > 100 µM; TGI [18]: > 100 µM; TGI [19]: > 100 µM; TGI [20]: > 100 µM; TGI [21]: > 100 µM; TGI [22]: > 100 µM; TGI [23]: > 100 µM; TGI [24]: > 100 µM; TGI [25]: > 100 µM; TGI [26]: > 100 µM; TGI [27]: > 100 µM; TGI [28]: > 100 µM; TGI [29]: > 100 µM; TGI [31]: > 100 µM; TGI [32]: > 100 µM; TGI [33]: > 100 µM; TGI [34]: > 100 µM; TGI [35]: > 100 µM; TGI [36]: > 100 µM; TGI [37]: > 100 µM; TGI [38]: > 100 µM; TGI [39]: > 100 µM; TGI [40]: > 100 µM; TGI [41]: > 100 µM; TGI [42]: > 100 µM; TGI [43]: > 100 µM; TGI [56]: > 100 µM; TGI [44]: > 100 µM; TGI [45]: > 100 µM; TGI [48]: > 100 µM; TGI [50]: > 100 µM
